Legend:
Format in all cases: in vivo
Septoria nodorum = experiment: Test C: preventive spray on wheat seedlings, Septoria glume blotch, disease rating; details: wheat seedlings sprayed to run-off, inoculated the following day with Septoria nodorum, 48 h saturated atmosphere then 9 days at 20° C.; test concentration not given
Summary of the method: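 Preventive test: one day after spraying (to run-off; 200 ppm ≈ 500 g/ha, in acetone/water with 250 ppm surfactant), seedlings received a S. nodorum spore suspension. After 48 h in saturated air and 9 days in a growth chamber, both at 20° C., % disease control versus controls was scored.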

Puccinia recondita = experiment: Test B: preventive spray on wheat seedlings, wheat leaf rust, disease rating; details: wheat seedlings sprayed to run-off, inoculated the following day with Puccinia recondita, 24 h saturated atmosphere then 6 days at 20° C.; test concentration not given
Summary of the method: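 Preventive test: seedlings inoculated with Puccinia recondita one day after run-off spraying with test suspension (acetone/water, 250 ppm Trem 014; 200 ppm equals 500 g/ha). Rating after 24 h at 20° C in saturation plus 6 days in 20° C growth chamber; 0–100 scale versus controls.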

[1] = test system: Erysiphe graminis f. sp. tritici; experiment: Test A: preventive spray on wheat seedlings, wheat powdery mildew, disease rating; details: wheat seedlings sprayed to run-off, inoculated the following day with Erysiphe graminis f. sp. tritici, rated after 7 days at 20° C.; test concentration not given
Summary of the method: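 Preventive test: Erysiphe graminis f. sp. tritici spore dust applied one day after run-off spraying of seedlings with acetone/water/surfactant suspension, 200 ppm equating to 500 g/ha. Plants held 7 days at 20 °C; ratings give % disease control versus controls, 100 full, 0 none.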

| Compound | Test C disease control rating (100 = 100% disease control, 0 = no disease control relative to the controls) (Septoria nodorum) [%] | Test B disease control rating (100 = 100% disease control, 0 = no disease control relative to the controls) (Puccinia recondita) [%] | Test A disease control rating (100 = 100% disease control, 0 = no disease control relative to the controls) [1] [%] |
| --- | --- | --- | --- |
| CCCC(CCC)Sc1cc(C)c(N=CN(C)C)cc1C [compound 157] | 99 | 96 | 0 |
| Cc1cc(SC(CCC(C)C)CCC(C)C)c(C)cc1N=CN(C)C [compound 159] | 47 | 100 | 94 |
| CCCCC(CCC)Sc1cc(C)c(N=CN(C)C)cc1C (stereo not drawn) [compound 160] | 0 | 55 | 0 |
| C=C(C)CC(CC)Sc1cc(C)c(N=CN(C)C)cc1C (stereo not drawn) [compound 161] | 53 | 100 | 72 |
| CCN(CC)C(=S)Nc1cc(C)c(OCCC[Si](C)(C)C)cc1C [compound 163] | 73 | 100 | 32 |
| CCN(C)C(=S)Nc1cc(C)c(OCCC[Si](C)(C)C)cc1C [compound 164] | 100 | 100 | 100 |
| Cc1cc(OCCOC(C)(C)C)c(C)cc1NC(=S)N(C)C [compound 165] | 0 | 28 | 0 |
| Cc1cc(OCCC[Si](C)(C)C)c(C)cc1NC(=S)N(C)C [compound 167] | 100 | 99 | 99 |
| Cc1cc(OCCC[Si](C)(C)C)c(Cl)cc1NC(=S)N(C)C [compound 168] | 100 | 100 | 99 |
| CCN(C)C(=S)Nc1cc(Cl)c(OCCC[Si](C)(C)C)cc1C [compound 169] | 100 | 100 | 99 |
| CCN(CC)C(=S)Nc1cc(Cl)c(OCCC[Si](C)(C)C)cc1C [compound 170] | 99 | 100 | 99 |
| Cc1cc(OCCC[Si](C)(C)C)c(Cl)cc1N=CN(C)C [compound 172] | 100 | 100 | 100 |
| CC(=Nc1cc(Cl)c(OCCC[Si](C)(C)C)cc1C)N(C)C [compound 173] | 99 | 90 | 32 |
| Cc1cc(OCCCC(C)(C)C)c(Cl)cc1N=CN(C)C [compound 175] | 100 | 100 | 97 |
| Cc1cc(OCCCC(C)(C)C)c(Cl)cc1N=CN(C)C [compound 176] | 100 | 99 | 43 |
| CCN(CC)C(=S)Nc1cc(Cl)c(OCCCC(C)(C)C)cc1C [compound 177] | 100 | 100 | 96 |
| CCN(C)C(=S)Nc1cc(Cl)c(OCCCC(C)(C)C)cc1C [compound 178] | 100 | 100 | 100 |
| CCN(CC)C(=S)Nc1cc(Cl)c(OCCC[Si](C)(C)C)c(Cl)c1C [compound 179] | 0 | 23 | 20 |
| Cc1c(NC(=S)N(C)C)cc(Cl)c(OCCC[Si](C)(C)C)c1Cl [compound 180] | 0 | 58 | 75 |
| CCN(C)C(=S)Nc1cc(Cl)c(OCCC[Si](C)(C)C)c(Cl)c1C [compound 181] | 67 | 100 | 100 |
| CCN(C)C=Nc1cc(Cl)c(OCCC[Si](C)(C)C)c(Cl)c1C [compound 182] | 67 | 79 | 98 |
| CN(C)C(=S)Nc1cc(Cl)c(OCCC[Si](C)(C)C)cc1Cl [compound 183] | 90 | 85 | 99 |
| CCN(C)C(=S)Nc1cc(Cl)c(OCCC[Si](C)(C)C)cc1Cl [compound 184] | 78 | 99 | 100 |
| CCN(CC)C(=S)Nc1cc(Cl)c(OCCC[Si](C)(C)C)cc1Cl [compound 185] | 63 | 98 | 99 |
| CN(C)C(=S)Nc1cc(Cl)c(OCCCC(C)(C)C)cc1Cl [compound 186] | 0 | 9 | 94 |
| CCN(C)C(=S)Nc1cc(Cl)c(OCCCC(C)(C)C)cc1Cl [compound 187] | 78 | 99 | 100 |
| CCN(CC)C(=S)Nc1cc(Cl)c(OCCCC(C)(C)C)cc1Cl [compound 188] | 90 | 79 | 100 |
| Cc1cc(NC(=O)NCC(C)C)c(C)cc1N=CN(C)C [compound 189] | 0 | 9 | 0 |

— patent publication US20050182025A1, “Amidinylphenyl compounds and their use as fungicides” (priority 2002, published 2005)
